Experimental data reported in US20180021456A1, “SELF-ASSEMBLED TARGETED INCLUSION COMPLEXES FOR DRUG DELIVERY” (UNIVERSITY OF SOUTH FLORIDA, priority 2015, published 2018).

Assays:
MCF-7 cells = experiment: Competition assay of estrone and tamoxifen with CDE1-Ada-DOX uptake in MCF-7 cells (flow cytometry); type: cell-based, human; conditions: CDE1-Ada-DOX 2 μM
Experimental: FIG. 17 is a bar graph of the fluorescence intensity for competition assay of CDE1-Ada-DOX at 2 μM in MCF-7 cells in the presence of estrone and tamoxifen at 0.1-10 μM. The results are represented as means±SD from triplicate determinations.
Flow cytometer: In all cases, unless otherwise indicated, the flow cytometric analysis was performed on a FACS (Becton Dickinson Immunocytometry Systems, San Jose, Calif.) by counting 10,000 events.
Moreover, the competition assay of estrone and tamoxifen with CDE1-Ada-DOX in MCF-7 cells was conducted and is shown in FIG. 17. […] Moreover, the ER antagonist-tamoxifen, which is the most prescribed medicine to treat hormone receptor-positive breast cancer, is capable of binding to the estrogen receptor but blocks its activity. […] While for both estrone and tamoxifen, inhibition saturated at concentrations higher than 5 μM. […] Addition of an Ada-DOX guest led to the decomplexation of the estrogen moiety. […] The results are consistent and replicable with the TEM/SEM observations.

[1] = system: extracellular signal-regulated kinases 1 and 2 (ERK1 and ERK2); experiment: Rapid phosphorylation of ERK1 and ERK2 (MAPK) after treatment; type: cell-based; conditions: treatment at 1 μM
Description: Western Blot: In all cases, unless otherwise indicated, the western blots were visualized by Bio-Rad digital imaging system and analyzed by Quantity One 1-D analyzing software.

Row | Structure (SMILES) | inhibition at 5 µM (MCF-7 cells; Homo sapiens, MCF7, competitor at 5 μM) [%] | inhibition of CDE1-Ada-DOX uptake (MCF-7 cells; competitor at 1 μM and above (p<0.001)) | time of maximum MAPK phosphorylation [1] [min]
1 | CC/C(=C(\c1ccccc1)c1ccc(OCCN(C)C)cc1)c1ccccc1 [tamoxifen] | 80 | significantly inhibited | 
2 | C[C@]12CC[C@@H]3c4ccc(O)cc4CC[C@H]3[C@@H]1CC[C@@H]2O [E2, 17β-estradiol] |  |  | 10
